Reference: patent publication US7384931B2, “Constrained compounds as CGRP-receptor antagonists” (Bristol-Myers Squibb Company, priority 2004, dated 2008)

Columns and labels:
[1] = target: T1, CGRP receptor (Homo sapiens, UniProt O60894+Q16602); assay: Cyclic AMP functional antagonism assay in SK-N-MC cells; assay type: cell-based; parameters: SK—N-MC cells that endogenously express the human CGRP receptor; endogenous in cells; host or cells: SK-N-MC cells; details: inhibition of 0.3 nM CGRP-induced cyclic AMP formation, 15 min pre-incubation, read-out: cAMP Function IC50
Method: Cyclic AMP Functional Antagonism Assay. Antagonism of the compounds of invention was determined by measuring the formation of cyclic AMP (adenosine 3′5′-cyclic monophosphate) in SK—N-MC cells that endogenously express the human CGRP receptor. CGRP receptor complex is coupled with Gs protein and CGRP binding to this complex leads to the cyclic AMP production via Gs—dependent activation of an adenylate cyclase (Juaneda C et al., TiPS, 2000; 21:432-438; incorporated by reference herein). Consequently, CGRP receptor antagonists inhibit CGRP—induced cyclic AMP formation in SK—N-MC cells (Doods H et al., Br J Pharmacol, 2000; 129(3):420-423); incorporated by reference herein). For cyclic AMP measurements SK—N-MC cells were incubated with 0.3 nM CGRP alone or in the presence of various concentrations of the compounds of invention for 30 min at room temperature. Compounds of invention were pre-incubated with SK—N-MC cells for 15 min before the addition of CGRP to allow receptor occupancy (Edvinsson et al., Eur J Pharmacol, 2001, 415:39-44; incorporated by reference herein). Cyclic AMP was extracted using the lysis reagent and its concentration was determined by radioimmunoassay using RPA559 cAMP SPA Direct Screening Assay Kit (Amersham Pharmacia Biotech). IC50 values were calculated using Excel fit.

[2] = target: T1, CGRP receptor; assay: CGRP radioligand binding assay ([125I]-CGRP displacement, SK-N-MC homogenate); parameters: endogenous in cells; host or cells: SK-N-MC cells (homogenate/membrane pellet); details: displacement of [125I]-CGRP, room temperature 2 h
Procedure, shortened: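 SK-N-MC cell homogenate (5 μg/well) was incubated 2 h at room temperature with [125I]-CGRP (diluted to 60 pM before addition) in 50 mM Tris-Cl pH 7.5, 5 mM MgCl2, 0.005% Triton X-100 plus protease inhibitors. Bound radioactivity was collected by filtration; 1 μM beta-CGRP defined non-specific binding. IC50 is 50% radioligand displacement.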

T1 sequence (Q16602 23-461): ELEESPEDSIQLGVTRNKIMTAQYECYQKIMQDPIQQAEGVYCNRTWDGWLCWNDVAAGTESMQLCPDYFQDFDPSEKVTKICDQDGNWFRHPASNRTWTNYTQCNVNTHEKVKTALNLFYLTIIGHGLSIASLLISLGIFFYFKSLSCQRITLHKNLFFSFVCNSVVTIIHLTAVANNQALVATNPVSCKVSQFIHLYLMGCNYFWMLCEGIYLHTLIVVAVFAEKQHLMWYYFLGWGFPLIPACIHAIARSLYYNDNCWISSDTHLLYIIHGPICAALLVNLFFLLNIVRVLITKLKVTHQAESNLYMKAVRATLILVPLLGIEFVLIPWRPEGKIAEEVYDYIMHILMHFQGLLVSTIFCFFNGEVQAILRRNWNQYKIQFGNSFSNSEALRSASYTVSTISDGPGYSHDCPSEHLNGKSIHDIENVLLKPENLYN
T1 sequence (O60894 27-148): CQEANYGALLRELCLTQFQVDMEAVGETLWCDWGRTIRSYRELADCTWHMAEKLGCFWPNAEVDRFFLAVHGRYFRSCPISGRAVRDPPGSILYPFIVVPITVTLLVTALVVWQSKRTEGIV

Row | SMILES | IC50 [1] | IC50 [2]
1 | CC(C)(C)CN1Cc2c(cc(Cl)c3[nH]ncc23)C[C@@H](CC(=O)N2CCC(n3cc(-c4ccccc4)[nH]c3=O)CC2)C1=O [Example 44, (S)-4-Chloro-9-neopentyl-7-(2-oxo-2-(4-(2-oxo-4-phenyl-2,3-dihydroimidazol-1-yl)piperidin-1-yl)ethyl)-6,7,9,10-tetrahydroazepino[3,4-e]indazol-8(3H)-one] | 0.1 to 10 nM | 0.1 to 10 nM
2 | CC(C)(C)CN1Cc2c(cc(Cl)c3[nH]ncc23)C[C@@H](CC(=O)N2CCC(c3cc4cccc(F)c4[nH]c3=O)CC2)C1=O [Example 47, (S)-4-Chloro-7-(2-(4-(8-fluoro-2-oxo-1,2-dihydroquinolin-3-yl)piperidin-1-yl)-2-oxoethyl)-9-neopentyl-6,7,9,10-tetrahydroazepino[3,4-e]indazol-8(3H)-one] | 10 to 100 nM | 10 to 100 nM
3 | O=C(C[C@@H]1Cc2cc(Cl)c3[nH]ncc3c2CN(Cc2ccncc2)C1=O)N1CCC(N2Cc3ccccc3NC2=O)CC1 [Example 49, (S)-4-Chloro-7-(2-oxo-2-(4-(2-oxo-1,2-dihydroquinazolin-3(4H)-yl)piperidin-1-yl)ethyl)-9-(pyridin-4-ylmethyl)-6,7,9,10-tetrahydroazepino[3,4-e]indazol-8(3H)-one] | 0.1 to 10 nM | 0.1 to 10 nM
4 | O=C(C[C@@H]1Cc2cc(Cl)c3[nH]ncc3c2CN(Cc2ccncc2)C1=O)N1CCC(N2Cc3cccc(F)c3NC2=O)CC1 [Example 50, (S)-4-Chloro-7-(2-(4-(8-fluoro-2-oxo-1,2-dihydroquinazolin-3(4H)-yl)piperidin-1-yl)-2-oxoethyl)-9-(pyridin-4-ylmethyl)-6,7,9,10-tetrahydroazepino[3,4-e]indazol-8(3H)-one] | 0.1 to 10 nM | 0.1 to 10 nM
5 | O=C(C[C@@H]1Cc2cc(Cl)c3[nH]ncc3c2CN(Cc2ccncc2)C1=O)N1CCC(n2cc(-c3ccccc3)[nH]c2=O)CC1 [Example 53, (S)-4-Chloro-7-(2-oxo-2-(4-(2-oxo-4-phenyl-2,3-dihydroimidazol-1-yl)piperidin-1-yl)ethyl)-9-(pyridin-4-ylmethyl)-6,7,9,10-tetrahydroazepino[3,4-e]indazol-8(3H)-one] | 0.1 to 10 nM | 0.1 to 10 nM
6 | CC(C)(C)CN1Cc2c(cc(Cl)c3[nH]ncc23)C[C@@H](CC(=O)N2CCC(c3cc4cnccc4[nH]c3=O)CC2)C1=O [Example 80, 1-[[(7S)-4-chloro-9-(2,2-dimethylpropyl)-3,6,7,8,9,10-hexahydro-8-oxoazepino[3,4-e]indazol-7-yl]acetyl]-4-(1,2-dihydro-2-oxo-1,6-naphthyridin-3-yl)-piperidine] | 10 to 100 nM | 10 to 100 nM

Next, values leading:

Row | IC50 [1] | IC50 [2] | SMILES
7 | 0.1 to 10 nM | 0.1 to 10 nM | CC(C)(C)CN1Cc2c(cc(Cl)c3[nH]ncc23)C[C@@H](CC(=O)N2CCC(n3cc(-c4ccccn4)[nH]c3=O)CC2)C1=O [Example 45, (S)-4-Chloro-9-neopentyl-7-(2-oxo-2-(4-(2-oxo-4-(pyridin-2-yl)-2,3-dihydroimidazol-1-yl)piperidin-1-yl)ethyl)-6,7,9,10-tetrahydroazepino[3,4-e]indazol-8(3H)-one]
8 | 0.1 to 10 nM | 0.1 to 10 nM | CC(C)(C)CN1Cc2c(cc(Cl)c3[nH]ncc23)C[C@@H](CC(=O)N2CCC3(CC2)NC(=O)Nc2ccccc23)C1=O [Example 46]
9 | 0.1 to 10 nM | 0.1 to 10 nM | O=C(C[C@@H]1Cc2cc(Cl)c3[nH]ncc3c2CN(Cc2ccncc2)C1=O)N1CCC(c2cc3ccccc3[nH]c2=O)CC1 [Example 52, (S)-4-Chloro-7-(2-oxo-2-(4-(2-oxo-1,2-dihydroquinolin-3-yl)piperidin-1-yl)ethyl)-9-(pyridin-4-ylmethyl)-6,7,9,10-tetrahydroazepino[3,4-e]indazol-8(3H)-one]
10 | 0.1 to 10 nM | 0.1 to 10 nM | O=C(C[C@@H]1Cc2cc(Cl)c3[nH]ncc3c2CN(Cc2ncc[nH]2)C1=O)N1CCC(N2Cc3ccccc3NC2=O)CC1 [Example 54, (S)-9-((1H-Imidazol-2-yl)methyl)-4-chloro-7-(2-oxo-2-(4-(2-oxo-1,2-dihydroquinazolin-3(4H)-yl)piperidin-1-yl)ethyl)-6,7,9,10-tetrahydroazepino[3,4-e]indazol-8(3H)-one]
11 | 10 to 100 nM | 10 to 100 nM | O=C(C[C@@H]1Cc2cc(Cl)c3[nH]ncc3c2CN(Cc2ccncc2)C1=O)N1CCC(c2cc3ccccc3cn2)CC1 [Example 85, (S)-4-chloro-7-(2-(4-(isoquinolin-3-yl)piperidin-1-yl)-2-oxoethyl)-9-(pyridin-4-ylmethyl)-6,7,9,10-tetrahydroazepino[3,4-e]indazol-8(3H)-one]
